Where two headings read alike, the source gives them in different places. Where a SMILES comes first, the peptide text is derived from it.
What was measured:
[1] = 50% TFE in 0.05% TFA; cited from earlier work
[2] = RP-HPLC retention as measure of overall peptide hydrophobicity; assay type: physicochemical; conditions: 80° C., polar face substitution
Procedure: Crude and purified peptides were analyzed on an Agilent 1100 series liquid chromatograph (Little Falls, Del.). Runs were performed on a Zorbax 300 SB-C8 column (150×2.1 mm I.D.; 5 μm particle size, 300 Å pore size) from Agilent Technologies using linear AB gradient (1% acetonitrile/min) and a flow rate of 0.25 ml/min, where eluant A was 0.2% aqueous TFA, pH 2 and eluant B was 0.2% TFA in acetonitrile.

human erythrocytes [3] = test: Hemolytic activity against human erythrocytes (HC50 / MHC, microtiter dilution); assay type: cell-based; conditions: V681 analog studies
[4] = RP-HPLC temperature profiling (peptide self-association parameter PA); assay type: physicochemical; conditions: enantiomer pairs of V681 analogs, 5° C. to 80° C., relative to peptide C
Method in brief: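 Peptide retention was profiled by RP-HPLC at pH 2 from 5 °C to 80 °C in 3 °C increments, using a linear gradient of 0.5% acetonitrile/min. The monomeric random-coil control peptide C profile was subtracted. PA is the maximum change in retention time relative to control C; higher PA means greater self-association.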

[5] = Circular dichroism spectroscopy (helical structure); assay type: physicochemical
human erythrocytes [6] = conditions: WO 2006/065977, cited from earlier work

SMILES | Transition temperature Tm (50% of α-helical structure denatured) [1] | Change in hydrophobicity (retention time) relative to PVL [2] | Hemolytic activity, minimal hemolytic concentration (MHC) (human erythrocytes [3]) | PA (peptide self-association parameter) [4] | [θ]222 molar ellipticity ([5]; 50% TFE) | α-helical content ([5]; 50% TFE) | α-helical content ([5]; benign conditions) | [θ]222 molar ellipticity ([5]; benign conditions (100 mM KCl, 50 mM aq. PO4, pH 7)) | Hemolytic activity (human erythrocytes [6]; after 12 hours) | Hemolytic activity (human erythrocytes [6]; after 18 hours)
CC[C@H](C)[C@H](NC(=O)[C@H](C)NC(=O)[C@H](CCCCN)NC(=O)[C@H](CC(C)C)NC(=O)[C@H](C)NC(=O)[C@@H](NC(=O)[C@H](Cc1c[nH]cn1)NC(=O)[C@H](CC(C)C)NC(=O)[C@@H](NC(=O)[C@@H](NC(=O)[C@H](CCCCN)NC(=O)[C@@H](NC(=O)[C@H](C)NC(=O)[C@H](CO)NC(=O)[C@H](CCCCN)NC(=O)[C@H](Cc1ccccc1)NC(=O)[C@@H](NC(=O)[C@H](CCCCN)NC(=O)[C@H](CC(C)C)NC(=O)[C@H](Cc1ccccc1)NC(=O)[C@H](CO)NC(=O)[C@H](CCCCN)NC(=O)[C@H](Cc1c[nH]c2ccccc12)NC(=O)[C@H](CCCCN)NC(C)=O)[C@@H](C)O)C(C)C)[C@@H](C)O)C(C)C)[C@@H](C)O)C(=O)N[C@@H](CO)C(=O)N[C@@H](CO)C(N)=O [Peptide V681] (Ac-KWKSFLKTFKSAVKTVLHTALKAISS-NH2) | 79.3 °C | -0.35 min | 15.6 µg/mL | 7.2 | −27,300 | 94% | 45% | −12,900 | – | –
CC[C@H](C)[C@H](NC(=O)[C@H](C)NC(=O)[C@H](CCCCN)NC(=O)[C@H](CC(C)C)NC(=O)[C@H](C)NC(=O)[C@@H](NC(=O)[C@H](Cc1c[nH]cn1)NC(=O)[C@H](CC(C)C)NC(=O)[C@@H](NC(=O)[C@@H](NC(=O)[C@H](CCCCN)NC(=O)[C@@H](C)NC(=O)[C@H](C)NC(=O)[C@H](CO)NC(=O)[C@H](CCCCN)NC(=O)[C@H](Cc1ccccc1)NC(=O)[C@@H](NC(=O)[C@H](CCCCN)NC(=O)[C@H](CC(C)C)NC(=O)[C@H](Cc1ccccc1)NC(=O)[C@H](CO)NC(=O)[C@H](CCCCN)NC(=O)[C@H](Cc1c[nH]c2ccccc12)NC(=O)[C@H](CCCCN)NC(C)=O)[C@@H](C)O)[C@@H](C)O)C(C)C)[C@@H](C)O)C(=O)N[C@@H](CO)C(=O)N[C@@H](CO)C(N)=O [NAD] (HELM PEPTIDE1{[ac].K.W.K.S.F.L.K.T.F.K.S.A.[dA].K.T.V.L.H.T.A.L.K.A.I.S.S.[am]}$$$$V2.0) | – | – | – | 4.1 | – | – | – | – | 250 µg/mL | 31.3 µg/mL
